Experimental data reported in ChEMBL document CHEMBL1143646, “Synthesis and HIV-1 integrase inhibitory activities of caffeic acid dimers derived from Salvia officinalis” (Bioorg Med Chem Lett, 2005).

Experiments:
[1] = target: Human immunodeficiency virus type 1 integrase (Human immunodeficiency virus 1, UniProt Q7ZJM1); assay: Inhibitory concentration against HIV-1 integrase
[2] = Antiviral activity against HIV-1 1 early replicative steps in HeLa-bgal- CD4+ (P4) reporter cells; format: functional; settings: Human immunodeficiency virus 1

Sequence of Human immunodeficiency virus type 1 integrase (Q7ZJM1 whole entry): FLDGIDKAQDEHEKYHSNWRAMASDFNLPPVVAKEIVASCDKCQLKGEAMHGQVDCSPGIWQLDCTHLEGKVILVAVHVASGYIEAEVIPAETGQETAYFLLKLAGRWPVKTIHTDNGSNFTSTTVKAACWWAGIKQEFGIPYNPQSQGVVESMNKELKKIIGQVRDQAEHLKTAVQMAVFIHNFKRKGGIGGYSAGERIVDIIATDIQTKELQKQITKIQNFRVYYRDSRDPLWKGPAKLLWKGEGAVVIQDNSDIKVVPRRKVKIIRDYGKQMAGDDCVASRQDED

SMILES | IC50 [1] | EC50 [2]
O=C(O)/C=C/c1ccc(Oc2cc3cc(O)c(O)cc3oc2=O)c(O)c1 | 2 µM | 37 µM
O=c1oc2cc(O)c(O)cc2cc1O | 2 µM | 12 µM
O=C(O)/C=C/c1ccc(O)c(Oc2cc3cc(O)c(O)cc3oc2=O)c1 | 1 µM | 31 µM
